Data taken from paper PMC8945122 (ACS Omega, 2022).
Entries after “also recorded” stand apart in the source; their conditions may differ.

Assays:
[1] = test system: H-2D^b/peptide complexes (pMHC); design: species or system murine; conditions: for melting temperature (Tm): pH 7.4
TCR P14 = assay type: binding
H-2D^b = H-2D^b (Mus musculus, UniProt P01899); design: species or system murine
endogenous CD8^+ T cells = conditions: mouse, in vivo; cited from earlier work
[2] = target: soluble T cell receptor P14; test: SPR

Sequence of H-2D^b (P01899 whole entry, looked up): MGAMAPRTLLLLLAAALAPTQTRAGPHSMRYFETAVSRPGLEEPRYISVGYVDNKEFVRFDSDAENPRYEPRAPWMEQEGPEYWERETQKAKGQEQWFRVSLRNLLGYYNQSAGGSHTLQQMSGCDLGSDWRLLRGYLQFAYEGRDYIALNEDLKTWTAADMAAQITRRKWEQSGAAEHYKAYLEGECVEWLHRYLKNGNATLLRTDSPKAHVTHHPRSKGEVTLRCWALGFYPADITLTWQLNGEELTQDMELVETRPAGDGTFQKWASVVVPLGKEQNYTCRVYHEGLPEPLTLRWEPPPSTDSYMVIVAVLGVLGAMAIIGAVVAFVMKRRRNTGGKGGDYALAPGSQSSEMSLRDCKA

Substance	thermal stability of pMHC (in words) [1]	melting temperature (Tm) [1] [°C]	binding by TCR P14 (in words) (TCR P14)	conformation of p6f / p4Y side chains and H155 (H-2D^b)	distances H-2D^b W73:NH–p6:CO and H-2D^b Y156:OH–p6:NH (H-2D^b)	pMHC complex formation (H-2D^b)	other results
KAPYNfATM [V3P_F6f]	slight decrease in stability	64.0	reduced P14 affinity; also recorded: significantly reduced binding by the H-2D^b/gp33-specific TCR P14	prevents the H-2D^b residue H155 to rotate counter clock wise and to assume a TCR-bound-like conformation	both distances increase in comparison to the corresponding structures with the L-amino acid	does not compromise complex formation	–
KAPFNFATM [V3P_Y4F]	–	–	–	–	–	–	recognition of Y4F-presenting infected cells by endogenous CD8^+ T cells (endogenous CD8^+ T cells): efficiently restores recognition of infected cells presenting Y4F by endogenous CD8^+ T cells
KAVYNFATM [gp33, reference compound]	–	63.5	–	–	–	–	–
H-2D^b/gp33 (from UniProt P01887) (peptide-MHC)	–	–	–	–	–	–	Kd [2]: 6.3 µM
KAVYNfATM [F6f]	slight decrease in stability	61.5	reduced P14 affinity; also recorded: significantly reduced binding by the H-2D^b/gp33-specific TCR P14	the side chain of p6f takes a different conformation in H-2D^b/F6f compared to H-2D^b/gp33	both distances increase in comparison to the corresponding structures with the L-amino acid	does not compromise complex formation	–
KAPYNFATM [V3P]	–	66.0	–	–	–	–	–
